Experiment in all cases: Minimum inhibitory concentration (MIC90)
What all share (type): cell-based

Assay [1] has as its system S. pneumoniae/penicillin sensitive. The text has this:
(§1) The concentrations of the antibiotics of formula (I) in the compositions of the present invention will vary depending on the intended use of the compositions (e.g., treatment of existing infections or prevention of post-surgical infections), and the relative antimicrobial activity of the specific antibiotic selected. The antimicrobial activity of antibiotics is generally expressed as the minimum concentration required to inhibit the growth of a specified pathogen. This concentration is also referred to as the “minimum inhibitory concentration” or “MIC”. The term “MIC90” refers to the minimum concentration of antibiotic required to inhibit the growth of ninety percent (90%) of the strains of a species. The concentration of an antibiotic required to totally kill a specified bacteria is referred to as the “minimum bactericidal concentration” or “MBC”. The minimum inhibitory concentration of Trovafloxacin for several bacteria commonly associated with ophthalmic, otic and nasal infections are provided in the following table: […]

Assay [2] concerns S. pneumoniae/penicillin resistant.
Text: as §1

The test system of assay [3] is S. epidermidis/methicillin resistant.
Text: as §1

Assay [4] has as its system H. influenzae/βlactamase negative.
Text: as §1

In assay [5] the test system is S. aureus/quinolone resistant.
Text: as §1

Assay [6] deals with S. epidermidis/methicillin sensitive.
Text: as §1

The next assay has as its system P. aeruginosa.
Text: as §1

Assay [7] relates to H. influenzae/β-lactamase positive.
Text: as §1

Assay [8] deals with S. aureus/methicillin sensitive.
Text: as §1

Assay [9] deals with S. aureus/methicillin resistant.
Text: as §1

Each structure is given as a SMILES string. ≈ marks a conversion by molar mass, not a printed value.

In the case of `N[C@@H]1[C@H]2CN(c3nc4c(cc3F)c(=O)c(C(=O)O)cn4-c3ccc(F)cc3F)C[C@@H]12` [Trovafloxacin], the MIC90 in assay [1] was 0.25 µg/mL (≈ 0.6 µM); in [2], 0.25 µg/mL (≈ 0.6 µM); in assay [3], 4.0 µg/mL (≈ 9.61 µM); in assay [4], 0.03 µg/mL (≈ 0.0721 µM); in [5], 4.0 µg/mL (≈ 9.61 µM); in assay [6] it was 0.06 µg/mL (≈ 0.144 µM). For the same molecule, the MIC90 with P. aeruginosa was 2.0 µg/mL (≈ 4.8 µM); in assay [7], 0.03 µg/mL (≈ 0.0721 µM); in assay [8], 0.03 µg/mL (≈ 0.0721 µM); in assay [9], 2.0 µg/mL (≈ 4.8 µM).
